Data: US20230380424A1, “IMPROVEMENTS IN OR RELATING TO COPPER BASED PESTICIDES” (AGRONATURALIS LTD, priority 2020, published 2023)

Tests used:
[1] = Contact angle of spray compositions (Kruss DSA30 Drop shape analyser); assay type: physicochemical; conditions: composition with 15 ppm copper hydroxide
Experimental: (§1) The surface wetting and deposition of copper from spray compositions was determined by comparing compositions containing 15 ppm copper hydroxide with varying amounts of sodium lauryl sulfate (Agnique SLS) on its own, varying amounts of sodium dioctyl sulfosuccinate (Geropon SDS) on its own and various mixtures of the two surfactants.
Contact angles of the same compositions were also measured.
(§2) The measurements were made using a Kruss DSA30 Drop shape analyser.

[2] = Surface tension of spray compositions (Kruss DSA30 Drop shape analyser); assay type: physicochemical; conditions: composition with 15 ppm copper hydroxide
Experimental: as §1, §2

Row | SMILES | contact angle ([1]; across all rates) | surface tension (actual) ([2]; 5 ppm surfactant) | surface tension (actual) ([2]; 20 ppm surfactant) | surface tension (actual) ([2]; 50 ppm surfactant) | surface tension (actual) ([2]; 125 ppm surfactant) | surface tension (actual) ([2]; 250 ppm surfactant) | contact angle trend with concentration [1]
1 | CCCCCCCCCCCCOS(=O)(=O)[O-].[Na+] [Agnique SLS, sodium lauryl sulfate] | > 100 ° | 70.4 mN/m | 70.5 mN/m | 67.3 mN/m | 64.7 mN/m | 64.6 mN/m | 
2 | CCCCCCCCOC(=O)CC(C(=O)OCCCCCCCC)S(=O)(=O)O.[Na] (stereo not drawn) [Geropon SDS, sodium dioctyl sulfosuccinate] |  | 70.0 mN/m | 55.5 mN/m | 49.6 mN/m | 47.6 mN/m | 43.9 mN/m | stepwise reduction from 5 ppm onwards
